Where “and” joins values, the source holds several entries; their conditions need not be identical. Identical values can stand only once. Like-named read-outs stand apart in the source and are kept apart here.
Experiments:
monomeric YU-2 gp120 = molecular target: T1, monomeric YU-2 gp120 (Human immunodeficiency virus type 1 group M subtype B, UniProt P35961); experiment: biochemical; format: binding, HIV-1; conditions: ITC, 25° C., PBS pH 7.4, 2% DMSO
T1 construct: containing monomeric YU-2 gp120 at a concentration of 2 μM
Experimental: Isothermal Titration Calorimetry. Thermodynamic parameters for the binding of the different inhibitors to gp120 were obtained by isothermal titration calorimetry (ITC) using a VP-ITC microcalorimeter from MicroCal/GE Healthcare (Northampton, Mass., USA). The titrations were performed at 25° C. by injecting 10 μL aliquots of inhibitor solution into the calorimetric cell (volume ˜1.4 mL) containing monomeric YU-2 gp120 at a concentration of 2 μM. […] In all titration experiments, gp120 and the different inhibitors were equilibrated with PBS, pH 7.4, with 2% DMSO. The heat evolved upon each injection of inhibitor was obtained by integration of the calorimetric signal. The heat associated with inhibitor binding to gp120 was obtained by subtracting the heat of dilution from the heat of reaction.

AD8 = experiment: Infection by single-round luciferase viruses, HIV-1 AD8 envelope; format: cell-based; conditions: Human immunodeficiency virus 1, 48 h, read-out: AD8 (μM)
A-MLV = experiment: Infection by single-round luciferase viruses, control A-MLV envelope; format: cell-based, amphotropic murine leukemia virus; conditions: Murine leukemia virus, 48 h, read-out: A-MLV (μM)
Experimental: (§1) Compounds: Compounds are dissolved in dimethyl sulfoxide at a stock concentration of 10 mM, aliquoted, and stored at −20° C. Each compound is then diluted to 1 mM in serum-free Dulbecco's modified Eagle medium (DMEM) and used for different assays.
(§2) Cell Lines: 293T human embryonic kidney and Cf2Th canine thymocytes (ATCC) are grown at 37° C. and 5% CO2 in Dulbecco's modified Eagle's medium (Invitrogen) containing 10% fetal bovine serum (Sigma) and 100 μg/mL penicillin-streptomycin (Mediatech, Inc.). Cf2Th cells stably expressing human CCR5 and CD4 are grown in medium supplemented with 0.4 mg/mL G418 and 0.2 mg/mL hygromycin (Invitrogen).
(§3) Recombinant Luciferase Viruses: 293T human embryonic kidney cells were co-transfected with plasmids expressing the pCMVΔP1Δenv HIV-1 Gag-Pol packaging construct, the R5 YU2 envelope glycoproteins, or the envelope glycoprotein of the control amphotropic murine leukemia virus (A-MLV), and the firefly luciferase-expressing vector at a DNA ratio of 1:1:3 μg using the Effectene transfection reagent (Qiagen). Co-transfection produced single-round, replication-defective viruses. The virus-containing supernatants were harvested 36-40 h after transfection, spun, aliquoted, and frozen at −80° C. until further use. The reverse transcriptase (RT) activities of all viruses were measured as described in Rho, H. M., et al. Virology 1981, 112, 355-360.
(§4) Infection by Single-Round Luciferase Viruses. Cf2Th-CCR5-CD4 target cells were seeded at a density of 6×10^3 cells/well in 96-well luminometer-compatible tissue culture plates (PerkinElmer) 24 h before infection. On the day of infection, CD4-mimetic compounds of interest (0-100 μM) were incubated with recombinant viruses (10,000 RT units) at 37° C. for 30 min. In the case of sensitization assays, a constant concentration of compounds was incubated with virus for 30 min at 37° C.; then, 17b or other antibodies (0-100 μg/mL) were added to the virus/compound mixture and incubated for an additional 30 min at 37° C. The mixtures were then added to the target cells and incubated for 48 h at 37° C.; after this time, the medium was removed from each well, and the cells were lysed by the addition of 30 μL passive lysis buffer (Promega) and three freeze-thaw cycles. An EG&G Berthold Microplate Luminometer LB 96V was used to measure the luciferase activity of each well after the addition of 100 μL of luciferin buffer (15 mM MgSO4, 15 mM KPO4, pH 7.8, 1 mM ATP, and 1 mM dithiothreitol) and 50 μL of 1 mM Firefly D-Luciferin Free Acid 99% (Prolume).

YU-2 = experiment: Infection by single-round luciferase viruses, HIV-1 YU-2 envelope; format: cell-based; conditions: Human immunodeficiency virus 1, 48 h, read-out: YU-2 (μM)
Experimental: as §1, §2, §3, §4

JR-FL = experiment: Infection by single-round luciferase viruses, HIV-1 JR-FL envelope; format: cell-based; conditions: Human immunodeficiency virus 1, 48 h, read-out: JR-FL (μM)
gp120 = gp120 (Human immunodeficiency virus type 1 group M subtype B, UniProt P35961); conditions: background statement; cited from earlier work
[1] = Evaluation of blood-brain barrier: brain and plasma concentrations; format: in vivo; conditions: 1 hr post IP at 5 mg/kg, female CD1 mice
Experimental: Compound BNM-III-170 was administered to mice under a protocol approved by the University of Pennsylvania Institutional Animal Care and Use Committee. Specifically, BNM-III-170, dissolved in DMSO, was administered IP at 5 mg/kg to 3 month old female CD1 mice. Mice were euthanized 1 hour post dose. Brain and plasma were then collected.
Hemi-brains were homogenized with 10 mM ammonium acetate pH 4.0 (50% w/v) using a sonic dismembrator. Brain homogenate and plasma were extracted with 4 parts (v/v) acetonitrile, vortexed, and centrifuged at 15,000 g for 10 minutes. Supernatants were analyzed by LC-MS/MS using a Waters Acuity UPLC-TQMS. Samples (5 μL) were separated using a BEH C18 column (1.7 μm, 2.1×50 mm) at 0.6 mL/min from 5 to 95% acetonitrile with 0.1% formic acid over 2 minutes. BNM-III-170 was detected in positive ion mode using selected reaction monitoring of a specific collision induced ion transition (447.3>184.1 m/z). Unknown peak areas were quantified against standard curves constructed with BNM-III-170 spiked mouse brain homogenate or plasma extracted as above to final concentrations from 1 to 1000 ng/mL.

[2] = Assessment of the maximum tolerated dose (MTD); conditions: mouse, in vivo, ip; intraperitoneal, CD-1 mice
Experimental: Procedure: (+)-BNM-III-170 was dissolved in DMSO to a final concentration of 10 mg/mL. This solution was then used for intraperitoneal administration to CD-1 mice at various doses to examine for visible signs of intolerance after compound dosing. This included an assessment of hyper- or hypoactivity, altered locomotion, ataxia, sedation, or other visible abnormalities. The compound was ultimately tested at three doses (30 mg/kg, 10 mg/kg and 3 mg/kg), as outlined below, with the amounts injected per mouse and the behavioral observations indicated for each dosing group.

| SMILES | ΔG (monomeric YU-2 gp120) [kcal/mol] | ΔH (monomeric YU-2 gp120) [kcal/mol] | −TΔS (kcal/mol) (monomeric YU-2 gp120) | IC50 (AD8) [µM] | IC50 (A-MLV) [µM] | IC50 (YU-2) [µM] | IC50 (JR-FL) [µM] | Kd (monomeric YU-2 gp120) [µM] | favorable enthalpy change (gp120) [kcal/mol] | unfavorable entropy change, −TΔS, to Gibbs energy (gp120) [kcal/mol] | B/P ([1]; individual mice 1-3) | Brain ([1]; individual mice 1-3) | Plasma ([1]; individual mice 1-3) | Kp at 1 h ([1]; female, CD1, mouse, brain, ip, 5 mg/kg, AVG of 3 mice, read-out: B/P) | concentration at 1 h ([1]; female, CD1, mouse, brain, ip, 5 mg/kg, AVG of 3 mice, read-out: Brain) [ng/g] | concentration at 1 h ([1]; female, CD1, mouse, plasma, ip, 5 mg/kg, AVG of 3 mice, read-out: Plasma) [ng/mL] | MTD [2] [mg/kg] |
| --- | --- | --- | --- | --- | --- | --- | --- | --- | --- | --- | --- | --- | --- | --- | --- | --- | --- |
| N=C(N)NC[C@H]1Cc2ccccc2[C@@H]1NC(=O)C(=O)Nc1ccc(Cl)c(F)c1 [(+)-DMJ-II-121] | -9.5 | -17.9 | +8.4 kcal/mol | 8.5 ± 2.1 | 94.3 ± 5.7 | 3.8 ± 1.3 | 66.8 ± 9.5 |  |  |  |  |  |  |  |  |  |  |
| CNCc1ccc2c(c1)[C@H](NC(=O)C(=O)Nc1ccc(Cl)c(F)c1)[C@@H](CNC(=N)N)C2 [(+)-JP-III-048] | -10.4 | -28.2 | +17.8 kcal/mol | 6.7 ± 0.6 | > 100 | 2.1 ± 0.9 | 37.3 ± 13.8 | 0.024 |  |  |  |  |  |  |  |  |  |
| CC1(C)CC(NC(=O)C(=O)Nc2ccc(Cl)cc2)CC(C)(C)N1 [NBD-556] |  |  |  |  |  |  |  |  | -24.5 | 17.1 |  |  |  |  |  |  |  |
| CN(Cc1ccccc1)Cc1ccc2c(c1)C[C@H](CNC(=N)N)[C@H]2NC(=O)C(=O)Nc1ccc(Cl)c(F)c1 [(+)-BNM-IV-125] |  |  |  |  | > 100 |  | 14 ± 2 |  |  |  |  |  |  |  |  |  |  |
| CNCc1ccc2c(c1)C[C@H](CNC(=N)N)[C@H]2NC(=O)C(=O)Nc1ccc(Cl)c(F)c1 [(+)-BNM-III-170] | -10.0 | -20.7 | +10.7 kcal/mol | 6.4 ± 1 | > 100 | 1.5 ± 0.8 | 14.2 ± 4.5 | 0.047 |  |  | 0.51 and 0.14 and 0.45 | 268 ng/g and 131 ng/g and 122 ng/g | 522 ng/mL and 910 ng/mL and 270 ng/mL | 0.37 | 174 | 567 | 3 to 9 |
| CN(Cc1ccc2c(c1)C[C@H](CNC(=N)N)[C@H]2NC(=O)C(=O)Nc1ccc(Cl)c(F)c1)C(=N)N [(+)-BNM-IV-147] | -9.6 | -15.4 | +5.8 kcal/mol | 3.3 ± 0.2 | > 100 | 0.8 ± 0.02 | 6.2 ± 0.5 | 0.095 |  |  |  |  |  |  |  |  |  |
| CN(Cc1ccc2c(c1)[C@H](NC(=O)C(=O)Nc1ccc(Cl)c(F)c1)[C@@H](CNC(=N)N)C2)C(=N)N [(−)-BNM-IV-197] | -9.6 | -14.2 | +4.6 kcal/mol | 1.3 ± 0.2 | 83.7 ± 16.4 | 1.2 ± 0.3 | 19.5 ± 10.1 | 0.095 |  |  |  |  |  |  |  |  |  |
